The assay relates to P388 leukemia ip, CD2F1 mice, survival T/C. The experiment in a line: NCI In Vivo Anticancer Drug Screen. Data for tumor model P388 Leukemia (intraperitoneal) in CD2F1 (CDF1) mice. As to conditions: endpoint: median survival time, higher = longer survival. An outline of the steps:
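Mice carrying the transplanted tumor received test compound or vehicle. Survival was recorded in each group, and the value is the treated-group measurement divided by that of the vehicle-treated control group.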

Setting [1] is: dose: 50.0 mg/kg/injection, schedule: Q01DX005 (ip), vehicle: Klucel (hydroxypropylcellulose) (HPC).
The mark [2] stands for this setting: dose: 100.0 mg/kg/injection, schedule: Q01DX005 (ip), vehicle: Klucel (hydroxypropylcellulose) (HPC).
Where [3] appears, read: dose: 200.0 mg/kg/injection, schedule: Q01DX005 (ip), vehicle: Klucel (hydroxypropylcellulose) (HPC).
The mark [4] stands for this setting: dose: 50.0 mg/kg/injection, schedule: Q01DX009 (ip), vehicle: saline.
[5] abbreviates: dose: 100.0 mg/kg/injection, schedule: Q01DX009 (ip), vehicle: saline.
Where [6] appears, read: dose: 12.5 mg/kg/injection, schedule: Q01DX009 (ip), vehicle: saline with Tween-80.
Setting [7] is: dose: 25.0 mg/kg/injection, schedule: Q01DX009 (ip), vehicle: saline with Tween-80.
The mark [8] stands for this setting: dose: 50.0 mg/kg/injection, schedule: Q01DX009 (ip), vehicle: saline with Tween-80.
The mark [9] stands for this setting: dose: 60.0 mg/kg/injection, schedule: Q01DX005 (ip), vehicle: saline with Tween-80.
Where [10] appears, read: dose: 120.0 mg/kg/injection, schedule: Q01DX005 (ip), vehicle: saline with Tween-80.
Where [11] appears, read: dose: 240.0 mg/kg/injection, schedule: Q01DX005 (ip), vehicle: saline with Tween-80.
Where [12] appears, read: dose: 100.0 mg/kg/injection, schedule: Q01DX009 (ip), vehicle: saline with Tween-80.
The mark [13] stands for this setting: dose: 200.0 mg/kg/injection, schedule: Q01DX009 (ip), vehicle: saline with Tween-80.
The mark [14] stands for this setting: dose: 100.0 mg/kg/injection, schedule: Q01DX001 (ip), vehicle: saline.

The structures appear in SMILES notation. “And” between values parts separate entries of the source, which are not always exact repeats. Equal values may be shown once. Inconclusive results and toxic doses are left out.

Here are results for 25 molecules from PubChem BioAssay AID330 (DTP/NCI, 2004).

On to `OCC12CCCC(CO)(COC1)C2O` (centres undefined), for which the T/C runs as follows: (dose: 25.0 mg/kg/injection, schedule: Q01DX005 (ip), vehicle: saline) 105 % of control; (dose: 50.0 mg/kg/injection, schedule: Q01DX005 (ip), vehicle: saline) 105 % of control; (dose: 100.0 mg/kg/injection, schedule: Q01DX005 (ip), vehicle: saline) 100 % of control; (dose: 200.0 mg/kg/injection, schedule: Q01DX005 (ip), vehicle: saline) 115 % of control.
Regarding `O=C1/C(=C/N2CCOCC2)CCc2nc(-c3ccccc3)sc21`, the T/C is 109 % of control under setting [1], 100 % of control under setting [2] and 100 % of control under setting [3].
Take `O=c1[nH]c(=O)c2sc3ncccc3c2[nH]1`: the T/C reads like this: (dose: 6.25 mg/kg/injection, schedule: Q01DX009 (ip), vehicle: saline) 119 % of control; (dose: 12.5 mg/kg/injection, schedule: Q01DX009 (ip), vehicle: saline) 100 % of control; (dose: 25.0 mg/kg/injection, schedule: Q01DX009 (ip), vehicle: saline) 101 % of control.
For `COC1=CS(C)(=O)=CC(SC)=C1C#N` (centres undefined), the T/C was 99 % of control (dose: 50.0 mg/kg/injection, schedule: Q04DX002 (ip), vehicle: Klucel (hydroxypropylcellulose) (HPC)); 99 % of control (dose: 100.0 mg/kg/injection, schedule: Q04DX002 (ip), vehicle: Klucel (hydroxypropylcellulose) (HPC)); 98 % of control (dose: 200.0 mg/kg/injection, schedule: Q04DX002 (ip), vehicle: Klucel (hydroxypropylcellulose) (HPC)).
For the molecule `OC(Cc1cncc(CC(O)(C(F)(F)F)C(F)(F)F)n1)(C(F)(F)F)C(F)(F)F`, the T/C was 99 % of control under setting [4]; 98 % of control under setting [5]; 102 % of control (dose: 200.0 mg/kg/injection, schedule: Q01DX009 (ip), vehicle: saline).
With `CCN(CC)CCOC(=O)c1ccc(N)cc1`, the T/C by setting is: under setting [4], 98 % of control; under setting [5], 100 % of control.
For `Cc1ccc(C[N+](C)(C)C)cc1`, the T/C by setting is: under setting [6], 107 % of control; under setting [7], 100 % of control; under setting [8], 100 % of control and 106 % of control.
For `COc1ccc(C2SCC(=O)N2c2nncs2)c(OC)c1` (centres undefined), the T/C (dose: 60.0 mg/kg/injection, schedule: Q01DX005 (ip), vehicle: Klucel (hydroxypropylcellulose) (HPC)) was 99 % of control; the T/C (dose: 120.0 mg/kg/injection, schedule: Q01DX005 (ip), vehicle: Klucel (hydroxypropylcellulose) (HPC)) is 106 % of control; the T/C (dose: 240.0 mg/kg/injection, schedule: Q01DX005 (ip), vehicle: Klucel (hydroxypropylcellulose) (HPC)) is 110 % of control.
In the case of `NC(=O)SCCC(=O)Nc1ccccc1`, the T/C was 105 % of control under setting [1], 105 % of control under setting [2] and 109 % of control under setting [3].
Turning to `Cc1nc(N(C)C)oc(=O)c1Cc1ccccc1`, the T/C runs as follows: under setting [9], 102 % of control; under setting [10], 100 % of control; under setting [11], 100 % of control.
`CCN(CC)c1ccc2nc3c4ccccc4c(=O)cc-3n(-c3ccccc3)c2c1`: the T/C runs as follows: under setting [12], 99 % of control; under setting [13], 101 % of control; (dose: 400.0 mg/kg/injection, schedule: Q01DX009 (ip), vehicle: saline with Tween-80) 115 % of control.
In the case of `CC[C@@H]1CN2CCc3c([nH]c4ccccc34)[C@@](C(=O)OC)(c3cc4c(cc3OC)N(C)[C@H]3[C@@](O)(C(=O)OC)[C@H](OC(C)=O)[C@]5(CC)C=CCN6CC[C@]43[C@@H]65)C[C@H](C2)[C@H]1O`, the T/C by setting is: (dose: 1.0 mg/kg/injection, schedule: Q01DX001 (ip), vehicle: water) 115 % of control; (dose: 2.0 mg/kg/injection, schedule: Q01DX001 (ip), vehicle: water) 115 % of control; (dose: 4.0 mg/kg/injection, schedule: Q01DX001 (ip), vehicle: water) 117 % of control and 118 % of control; (dose: 32.0 mg/kg/injection, schedule: Q01DX001 (ip), vehicle: water) 174 % of control; (dose: 64.0 mg/kg/injection, schedule: Q01DX001 (ip), vehicle: water) 150 % of control and 174 % of control.
For `Cc1cc(N(C)C)c2ccc3c(ccc4c(N(C)C)cc(C)nc43)c2n1`, the T/C by setting is: under setting [7], 94 % of control; under setting [12], 103 % of control; under setting [13], 99 % of control.
Turning to `Nc1[nH]nc(Nc2cccc(Cl)c2Cl)c1C(=O)c1cccs1`, the T/C runs as follows: under setting [6], 101 % of control; under setting [7], 99 % of control; under setting [8], 99 % of control and 100 % of control; under setting [12], 96 % of control; under setting [13], 98 % of control.
Take `CCCCCCCCCCCCCCCCS(=O)(=O)N/N=C(\c1ccc(O)c(OC)c1)N1CCOCC1`: the T/C is 110 % of control (dose: 50.0 mg/kg/injection, schedule: Q01DX009 (ip), vehicle: Klucel (hydroxypropylcellulose) (HPC)); 101 % of control (dose: 100.0 mg/kg/injection, schedule: Q01DX009 (ip), vehicle: Klucel (hydroxypropylcellulose) (HPC)); 96 % of control (dose: 200.0 mg/kg/injection, schedule: Q01DX009 (ip), vehicle: Klucel (hydroxypropylcellulose) (HPC)).
Consider `CCNC(=O)/N=c1/sc([N+](=O)[O-])cn1CC(=O)N(C)C(=O)OCC`, for which the T/C was 100 % of control (dose: 25.0 mg/kg/injection, schedule: Q01DX001 (ip), vehicle: saline); 98 % of control (dose: 50.0 mg/kg/injection, schedule: Q01DX001 (ip), vehicle: saline); 100 % of control under setting [14].
Take `COC1=CC(=O)C(=O)C=C1C(C)(C)C`: the T/C was 107 % of control (dose: 2.8 mg/kg/injection, schedule: Q01DX005 (ip), vehicle: saline with Tween-80); 100 % of control (dose: 5.6 mg/kg/injection, schedule: Q01DX005 (ip), vehicle: saline with Tween-80); 107 % of control (dose: 11.25 mg/kg/injection, schedule: Q01DX005 (ip), vehicle: saline with Tween-80); 98 % of control and 115 % of control (dose: 22.5 mg/kg/injection, schedule: Q01DX005 (ip), vehicle: saline with Tween-80); 91 % of control and 96 % of control (dose: 45.0 mg/kg/injection, schedule: Q01DX005 (ip), vehicle: saline with Tween-80).
Take `CC(Cc1ccccc1)NC(=O)C1CC2CCCCN2C1C` (centres undefined): the T/C is 97 % of control under setting [9] and 95 % of control under setting [10].
Regarding `COc1cccc(C(=O)CC[N+](C)(C)C)c1`, the T/C is 100 % of control (dose: 3.13 mg/kg/injection, schedule: Q01DX009 (ip), vehicle: saline with Tween-80); 102 % of control (dose: 6.25 mg/kg/injection, schedule: Q01DX009 (ip), vehicle: saline with Tween-80); 103 % of control under setting [6].
Take `COS(=O)(=O)C(F)(F)F`: the T/C is 111 % of control under setting [14]; 111 % of control (dose: 200.0 mg/kg/injection, schedule: Q01DX001 (ip), vehicle: saline); 111 % of control (dose: 400.0 mg/kg/injection, schedule: Q01DX001 (ip), vehicle: saline).
On to `COC(=O)c1nc2[nH]n(-c3ccccc3)c(=O)c2c(C(=O)OC)c1C(C)C(=O)c1ccccc1` (centres undefined), for which the T/C was 100 % of control under setting [9], 109 % of control under setting [10] and 94 % of control under setting [11].
For `CN(C)c1ccc(/C=C/c2cc[n+](C)c(/C=C/c3ccc(N(C)C)cc3)c2)cc1`, the T/C was 115 % of control (dose: 0.78 mg/kg/injection, schedule: Q01DX005 (ip), vehicle: saline) and 119 % of control (dose: 1.56 mg/kg/injection, schedule: Q01DX005 (ip), vehicle: saline).
For `O=C1OC(Oc2ccccc2)c2cc3c(cc21)OCO3` (centres undefined), the T/C is, setting by setting: under setting [9], 90 % of control; under setting [10], 90 % of control; under setting [11], 99 % of control.
`O=C1OC(C2OC(=O)C(=O)C2C(=O)c2ccc(Cl)cc2)C(C(=O)c2ccc(Cl)cc2)C1=O` (centres undefined): the T/C reads like this: (dose: 60.0 mg/kg/injection, schedule: Q01DX005 (ip), vehicle: saline + Tween-80 + alcohol) 95 % of control; (dose: 120.0 mg/kg/injection, schedule: Q01DX005 (ip), vehicle: saline + Tween-80 + alcohol) 92 % of control; (dose: 240.0 mg/kg/injection, schedule: Q01DX005 (ip), vehicle: saline + Tween-80 + alcohol) 94 % of control.
On to `N#CCNCC#N`, for which the T/C by setting is: (dose: 100.0 mg/kg/injection, schedule: Q04DX002 (ip), vehicle: saline) 102 % of control; (dose: 200.0 mg/kg/injection, schedule: Q04DX002 (ip), vehicle: saline) 103 % of control; (dose: 400.0 mg/kg/injection, schedule: Q04DX002 (ip), vehicle: saline) 102 % of control.
